Test results: a compilation of properties of binary mixtures (doi:10.1021/acs.jced.1c00924)

Experiment: xn = mol fraction of the nth substance listed
Details: 100 kPa

CCO + CCOP(=O)([O-])OCC.CC[n+]1ccn(C)c1
x2 = 0
Details | viscosity [mPa·s]
293.15 K | 1.18
298.15 K | 1.11
303.15 K | 0.98
308.15 K | 0.89
313.15 K | 0.82
323.15 K | 0.69
328.15 K | 0.65
333.15 K | 0.6
338.15 K | 0.56

CCOP(=O)([O-])OCC.CC[n+]1ccn(C)c1 + CCO
viscosity [mPa·s]
Details | 293.15 K | 298.15 K | 303.15 K | 308.15 K | 313.15 K | 318.15 K | 323.15 K | 328.15 K | 333.15 K | 338.15 K
x1 = 0.1002 | 3.82 | 3.46 | 3.1 | 2.8 | 2.58 | 2.39 | 2.28 | – | 2.05 | 1.94
x1 = 0.1992 | 8.71 | 7.58 | 6.67 | 5.96 | 5.38 | 4.92 | 4.57 | – | 4.06 | 3.86
x1 = 0.2987 | 18.6 | 15.84 | 13.57 | 11.74 | 10.35 | 9.23 | 8.34 | 7.65 | 7 | 6.48
x1 = 0.4007 | 35.9 | – | – | 20.9 | 18 | 15.6 | 13.64 | 12.11 | – | 9.9
x1 = 0.5007 | 65.5 | 52 | 41.8 | 34.4 | 28.6 | 24 | 20.8 | 18.1 | 15.82 | 13.95
x1 = 0.5993 | 106.8 | 83 | 64.6 | 51.6 | 41.6 | 34.2 | 28.8 | – | 20.8 | 18.1
x1 = 0.7003 | – | – | 102.1 | – | 63.3 | 50.3 | – | 33.5 | 28.1 | –
x1 = 0.8 | 256 | 187 | – | 107.6 | 82.5 | 65.4 | 52.6 | 42.7 | 35 | 29.3
x1 = 0.8985 | – | 271 | – | 146.8 | 112.5 | – | 68.7 | 54.6 | 44.5 | 36.5
x1 = 1 | – | 397 | 285 | 209 | – | 117.2 | 91.7 | 71.2 | 57.3 | 46.2
